Consider one compound from paper PMC5901744 (Science (New York, N.Y.), 2017).

The subject of test [1] is SaHEPD (hydroxyethylphosphonate dioxygenase from Streptomyces albus; class II HEPD). The test is described as follows: steady-state kinetics. Format: biochemical. Conditions: Fe(II), O2.
The test system is the same in test [2]. The following applies: read-out: Km,HEP; Fe(II), O2; product MPn instead of HMP.

Take `O=P(O)(O)CCO` [2-HEP, 2-hydroxyethylphosphonate]: the “Km,HEP” value in test [1] is “very similar to those of purified wild-type SaHEPD (Fig. S6 and S7, Table S2)”. For the same compound, in test [2], the Km (commonly the concentration of substrate that gives half-maximal velocity) came out at 15 ± 2 µM.
